The values below come from patent publication US9707203B1, “Methods of killing bacteria and preventing or treating bacterial infection with oxidation products of safranal and methods of synthesizing safranal epoxides” (King Abdulaziz University, priority 2016, dated 2017).

The test relates to methicillin resistant Staphylococcus aureus (MRSA). Put plainly: Agar well diffusion method, antibacterial activity on Mueller Hinton media. It counts as cell-based. The settings on record: for Inhibition zone diameter: bacterial lawn of Staphylococcus aureus grown on Mueller Hinton media, agar well diffusion. Here is the method: The antibacterial activities of safranal, a mixture of compound 2 and compound 3 obtained by the thermal epoxidation of safranal according to scheme 1, and a mixture of compound 2 and compound 3 obtained by the photochemical epoxidation of safranal according to scheme 2 against methicillin resistant Staphylococcus aureus (MRSA) were determined by the agar well diffusion method described by Collins, C. H., P. M. Lyne, J. M. Grange, Microbial Methods., 6th Edition, Butterworhs Co. Ltd, London; 1989. p. 410, incorporated herein by reference in its entirety.
Table 1: Antibacterial Activity (Inhibition Zone Diameter) of the Mixture of Compound 2 and Compound 3 Obtained by the Thermal Epoxidation of Safranal or by the Photochemical Epoxidation of Safranal, and Safranal Against Staphylococcus aureus Grown on Mueller Hinton Media Using Agar Well Diffusion Method
For orientation: In agar diffusion tests the substance spreads into inoculated agar from a disc or well.

Molecule `CC1=C(C=O)C(C)(C)CC=C1` [Safranal, 2,6,6-trimethylcyclohexa-1,3-diene-1-carbaldehyde] yielded an Inhibition zone diameter of 27.00 mm. The “Inhibition zone in the bacterial lawn (presence/absence)” value (Staphylococcus aureus on Mueller Hinton media in a petri dish, agar well containing test substance, FIG. 3B-3D) is reported as “presence of an inhibition zone”. Under “listed as safranal”, the Inhibition zone diameter came out at 27 mm.
